Experimental data taken from patent US20240217966A1, “PHARMACEUTICAL COMPOSITION CONTAINING GLP-1 RECEPTOR AGONIST HAVING FUSED RING” (Shionogi & Co., Ltd., priority 2021, published 2024).
Where two headings read alike, the source gives them in different places.

Target: T1, Human GLP-1 receptor (Homo sapiens, UniProt P43220)
T1 construct: expressed in transfected cells
Test: Measurement of GLP-1 receptor agonist activity (cAMP assay)
Type: cell-based
In short: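 hGLP-1R/CHO-K1 cells in HBSS with 0.1% BSA, 20 mM HEPES, 0.1 mM IBMX and 0.2 mM RO20-1724 exposed to compound plus forskolin (400 μM stock) for 1 h at 37 °C. Intracellular cAMP read by HTRF (cAMP-d2/anti-cAMP cryptate, 1 h at room temperature).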

[1] = CHO-K1, hGLP-1R/CHO-K1 cells, cAMP, 100% = human GLP-1 (7-36) at 2 nM, 0% = DMSO only, read-out: Emax(%)
[2] = hGLP-1R/CHO-K1 cells, cAMP increase, 37° C. 1 hour
[3] = CHO-K1, maximum effect, cAMP increase in GLP-1 R/CHO-K1 cells, 2 nM human GLP-1 (7-36) = 100%, DMSO only = 0%, read-out: Emax
[4] = cAMP increase in GLP-1 R/CHO-K1 cells, 2 nM human GLP-1 (7-36) = 100%, DMSO only = 0%

T1 sequence (P43220 24-463): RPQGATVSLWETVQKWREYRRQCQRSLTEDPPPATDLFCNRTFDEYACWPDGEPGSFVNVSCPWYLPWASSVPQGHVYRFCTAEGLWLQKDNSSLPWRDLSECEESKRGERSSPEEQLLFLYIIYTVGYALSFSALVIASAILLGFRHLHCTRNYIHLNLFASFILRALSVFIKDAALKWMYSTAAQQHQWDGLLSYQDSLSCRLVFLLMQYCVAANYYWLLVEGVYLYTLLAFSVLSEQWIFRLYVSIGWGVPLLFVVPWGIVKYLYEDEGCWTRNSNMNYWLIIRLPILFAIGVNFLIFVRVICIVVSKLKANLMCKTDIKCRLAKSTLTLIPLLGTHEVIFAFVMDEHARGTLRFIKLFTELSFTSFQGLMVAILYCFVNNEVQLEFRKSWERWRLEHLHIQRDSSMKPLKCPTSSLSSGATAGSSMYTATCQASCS

| SMILES | Emax [1] | EC50 [2] | Emax [3] | EC50 [4] |
| --- | --- | --- | --- | --- |
| O=C(O)c1ccc2nc(CN3CCc4cc(C(F)(F)F)c(OCc5c(F)cc(C(F)F)cc5F)cc4C3)n(C[C@@H]3CCO3)c2c1 [Compound I-216] | 103% | 8.62 nM |  |  |
| O=C(O)c1ccc2nc(CN3CCc4cc(C(F)(F)F)c(OCc5c(F)cc(OC(F)F)cc5F)cc4C3)n(C[C@@H]3CCO3)c2c1 [Compound I-217] | 103% | 2.34 nM |  |  |
| C[C@H]1c2nc(OCc3ccc(F)cc3)c(C(F)(F)F)cc2CCN1Cc1nc2ccc(C(=O)O)cc2n1C[C@@H]1CCO1 [Compound I-218] | 109% | 0.179 nM |  |  |
| C[C@H]1c2cc(OCc3ccc(C#N)cc3F)c(C(F)(F)F)cc2CCN1Cc1nc2ccc(C(=O)O)c(F)c2n1C[C@@H]1CCO1 [Compound I-219] | 114% | 1.2 nM |  |  |
| C[C@H]1c2nc(OCc3ccc(F)cc3Cl)c(C(F)(F)F)cc2CCN1Cc1nc2ccc(C(=O)O)cc2n1C[C@@H]1CCO1 [Compound I-220] | 110% | 0.251 nM |  |  |
| C[C@H]1c2cc(OCc3ccc(C#N)cc3F)c(Cl)cc2CCN1Cc1nc2ccc(C(=O)O)cc2n1C[C@@H]1CCO1 [Compound I-221] | 125% | 6.07 nM |  |  |
| O=C(O)c1ccc2nc(CN3CCc4cc(C(F)(F)F)c(OCc5ccc(Cl)cc5F)nc4C3)n(C[C@@H]3CCO3)c2c1F [Compound I-222] | 108% |  |  |  |
| C[C@H]1c2nc(OCc3ccc(Cl)cc3)c(C(F)(F)F)cc2CCN1Cc1nc2ccc(C(=O)O)c(F)c2n1C[C@@H]1CCO1 [Compound I-223] | 103% | 0.12 nM |  |  |
| COc1ccc(COc2cc3c(cc2C(F)(F)F)CCN(Cc2nc4c(OC)cc(C(=O)O)cc4n2C[C@@H]2CCO2)[C@H]3C)cc1 [Compound I-224] |  |  | 110% | 1.41 nM |
| COc1cc(C(=O)O)cc2c1nc(CN1CCc3cc(C(F)(F)F)c(OCc4ccc(Cl)cn4)cc3[C@@H]1C)n2C[C@@H]1CCO1 [Compound I-225] |  |  | 104% | 0.348 nM |
| COc1cc(C(=O)O)cc2c1nc(CN1CCc3cc(C(F)(F)F)c(OCc4ccc(Cl)cc4)cc3[C@@H]1C)n2C[C@@H]1CCO1 [Compound I-226] |  |  | 112% | 0.628 nM |
| COc1cc(C(=O)O)cc2c1nc(CN1CCc3cc(C(F)(F)F)c(OCc4ccc(C)cc4)cc3[C@@H]1C)n2C[C@@H]1CCO1 [Compound I-227] |  |  | 103% | 0.3 nM |
| COc1cc(C(=O)O)cc2c1nc(CN1CCc3cc(C(F)(F)F)c(OCc4ccc(C5CC5)cc4)cc3[C@@H]1C)n2C[C@@H]1CCO1 [Compound I-228] |  |  | 106% | 2.41 nM |
| COc1cc(Cl)ccc1COc1cc2c(cc1C(F)(F)F)CCN(Cc1nc3c(OC)cc(C(=O)O)cc3n1C[C@@H]1CCO1)[C@H]2C [Compound I-229] |  |  | 105% | 0.0656 nM |
| COc1cc(C(=O)O)cc2c1nc(CN1CCc3cc(C(F)(F)F)c(OCc4ccccc4Cl)cc3[C@@H]1C)n2C[C@@H]1CCO1 [Compound I-230] |  |  | 109% | 0.693 nM |
| COc1cc(C(=O)O)cc2c1nc(CN1CCc3cc(C(F)(F)F)c(OCc4ccc(F)cc4F)cc3[C@@H]1C)n2C[C@@H]1CCO1 [Compound I-231] |  |  | 106% | 0.282 nM |
| COc1cc(C(=O)O)cc2c1nc(CN1CCc3cc(C(F)(F)F)c(OCc4ccc(Cl)cc4Cl)cc3[C@@H]1C)n2C[C@@H]1CCO1 [Compound I-232] |  |  | 117% | 0.223 nM |
| COc1cc(C(=O)O)cc2c1nc(CN1CCc3cc(C(F)(F)F)c(OCc4ccc(OC(F)F)cc4F)cc3[C@@H]1C)n2C[C@@H]1CCO1 [Compound I-233] |  |  | 97.7% | 1.29 nM |
| COc1cc(C(=O)O)cc2c1nc(CN1CCc3cc(C(F)(F)F)c(OCc4cc(F)c(Cl)cc4F)cc3[C@@H]1C)n2C[C@@H]1CCO1 [Compound I-234] |  |  | 109% | 0.354 nM |
| COc1cc(C(=O)O)cc2c1nc(CN1CCc3cc(C(F)(F)F)c(OCc4ccc(C#N)cc4F)cc3[C@@H]1C)n2C[C@@H]1CCO1 [Compound I-235] |  |  | 102% | 0.378 nM |
| COc1cc(C(=O)O)cc2c1nc(CN1CCc3cc(C(F)(F)F)c(OCc4ccc(F)cc4)cc3[C@@H]1C)n2C[C@@H]1CCO1 [Compound I-236] |  |  | 106% | 0.429 nM |
| COc1cc(C(=O)O)cc2c1nc(CN1CCc3cc(C(F)(F)F)c(OCc4c(F)cc(Cl)cc4F)cc3[C@@H]1C)n2C[C@@H]1CCO1 [Compound I-237] |  |  | 102% | 0.103 nM |
| COc1cc(C(=O)O)cc2c1nc(CN1CCc3cc(C(F)(F)F)c(OCc4c(F)cc(F)cc4F)cc3[C@@H]1C)n2C[C@@H]1CCO1 [Compound I-238] |  |  | 106% | 0.36 nM |
| C[C@H]1c2nc(OCc3ccc(Cl)cc3)c(C(F)(F)F)cc2CCN1Cc1nc2c(F)cc(C(=O)O)cc2n1C[C@@H]1CCO1 [Compound I-239] |  |  | 95.3% | 0.0882 nM |

| SMILES | Emax [1] | EC50 [2] | Emax [3] | EC50 [4] |
| --- | --- | --- | --- | --- |
| C[C@H]1c2nc(OCc3ccc(C#N)cc3F)c(C(F)(F)F)cc2CCN1Cc1nc2ccc(C(=O)O)c(F)c2n1C[C@@H]1CCO1 [Compound I-240] |  |  | 122% | 0.0648 nM |
| C[C@H]1c2nc(OCc3ccc(C#N)cc3F)c(C(F)(F)F)cc2CCN1Cc1nc2c(F)cc(C(=O)O)cc2n1C[C@@H]1CCO1 [Compound I-241] |  |  | 125% | 0.0302 nM |
| COc1cc(C(=O)O)cc2c1nc(CN1CCc3cc(C(F)(F)F)c(OCc4ccc(C#N)cc4F)nc3[C@@H]1C)n2C[C@@H]1CCO1 [Compound I-242] |  |  | 116% | 0.0124 nM |
| C[C@H]1c2nc(OCc3ccc(Cl)cc3Cl)c(C(F)(F)F)cc2CCN1Cc1nc2ccc(C(=O)O)c(F)c2n1C[C@@H]1CCO1 [Compound I-243] |  |  | 111% | 0.0556 nM |
| C[C@H]1c2nc(OCc3ccc(Cl)cc3Cl)c(C(F)(F)F)cc2CCN1Cc1nc2c(F)cc(C(=O)O)cc2n1C[C@@H]1CCO1 [Compound I-244] |  |  | 123% | 0.0394 nM |
| C[C@H]1c2nc(OCc3cc(F)c(Cl)cc3F)c(C(F)(F)F)cc2CCN1Cc1nc2ccc(C(=O)O)c(F)c2n1C[C@@H]1CCO1 [Compound I-245] |  |  | 109% | 0.0605 nM |
| C[C@H]1c2nc(OCc3cc(F)c(Cl)cc3F)c(C(F)(F)F)cc2CCN1Cc1nc2c(F)cc(C(=O)O)cc2n1C[C@@H]1CCO1 [Compound I-246] |  |  | 120% | 0.0264 nM |
| C[C@H]1c2nc(OCc3ccc(Cl)cn3)c(C(F)(F)F)cc2CCN1Cc1nc2ccc(C(=O)O)cc2n1C[C@@H]1CCO1 [Compound I-247] |  |  | 121% | 0.351 nM |
| Cc1csc(COc2nc3c(cc2C(F)(F)F)CCN(Cc2nc4ccc(C(=O)O)cc4n2C[C@@H]2CCO2)[C@H]3C)n1 [Compound I-248] |  |  | 124% | 0.902 nM |
| C[C@H]1c2nc(OCc3ccc(Cl)cc3)c(C(F)(F)F)cc2CCN1Cc1nc2ccc(C(=O)O)cc2n1C[C@@H]1CCO1 [Compound I-249] |  |  | 145% | 0.13 nM |
| Cc1ccc(COc2nc3c(cc2C(F)(F)F)CCN(Cc2nc4ccc(C(=O)O)cc4n2C[C@@H]2CCO2)[C@H]3C)cc1 [Compound I-250] |  |  | 121% | 0.164 nM |
| C[C@H]1c2nc(OCc3ccc(C4CC4)cc3)c(C(F)(F)F)cc2CCN1Cc1nc2ccc(C(=O)O)cc2n1C[C@@H]1CCO1 [Compound I-251] |  |  | 120% | 0.807 nM |
| COc1cc(Cl)ccc1COc1nc2c(cc1C(F)(F)F)CCN(Cc1nc3ccc(C(=O)O)cc3n1C[C@@H]1CCO1)[C@H]2C [Compound I-252] |  |  | 125% | 0.0798 nM |
| C[C@H]1c2nc(OCc3ccccc3Cl)c(C(F)(F)F)cc2CCN1Cc1nc2ccc(C(=O)O)cc2n1C[C@@H]1CCO1 [Compound I-253] |  |  | 119% | 0.366 nM |
| C[C@H]1c2nc(OCc3ccc(F)cc3F)c(C(F)(F)F)cc2CCN1Cc1nc2ccc(C(=O)O)cc2n1C[C@@H]1CCO1 [Compound I-254] |  |  | 126% | 0.177 nM |
| C[C@H]1c2nc(OCc3ccc(Cl)cc3Cl)c(C(F)(F)F)cc2CCN1Cc1nc2ccc(C(=O)O)cc2n1C[C@@H]1CCO1 [Compound I-255] |  |  | 122% | 0.102 nM |
| C[C@H]1c2nc(OCc3ccc(OC(F)F)cc3F)c(C(F)(F)F)cc2CCN1Cc1nc2ccc(C(=O)O)cc2n1C[C@@H]1CCO1 [Compound I-256] |  |  | 119% | 0.389 nM |
| C[C@H]1c2nc(OCc3cc(F)c(Cl)cc3F)c(C(F)(F)F)cc2CCN1Cc1nc2ccc(C(=O)O)cc2n1C[C@@H]1CCO1 [Compound I-257] |  |  | 115% | 0.0747 nM |
| C[C@H]1c2nc(OCc3ccc(C#N)cc3F)c(C(F)(F)F)cc2CCN1Cc1nc2ccc(C(=O)O)cc2n1C[C@@H]1CCO1 [Compound I-258] |  |  | 107% | 0.0911 nM |
| C[C@H]1c2nc(OCc3c(F)cc(Cl)cc3F)c(C(F)(F)F)cc2CCN1Cc1nc2ccc(C(=O)O)cc2n1C[C@@H]1CCO1 [Compound I-259] |  |  | 134% | 0.104 nM |
| C[C@H]1c2nc(OCc3c(F)cc(F)cc3F)c(C(F)(F)F)cc2CCN1Cc1nc2ccc(C(=O)O)cc2n1C[C@@H]1CCO1 [Compound I-260] |  |  | 115% | 0.128 nM |
| C[C@H]1c2cc(OCc3ccc(Cl)cc3F)c(C(F)F)cc2CCN1Cc1nc2ccc(C(=O)O)cc2n1C[C@@H]1CCO1 [Compound I-261] |  |  | 105% | 1.27 nM |
| COc1ccc(COc2nc3c(cc2C(F)(F)F)CCN(Cc2nc4ccc(C(=O)O)cc4n2C[C@@H]2CCO2)C3)cc1 [Compound I-262] |  |  | 109% | 4.47 nM |
| O=C(O)c1ccc2nc(CN3CCc4cc(C(F)(F)F)c(OCc5ccc(Cl)cn5)nc4C3)n(C[C@@H]3CCO3)c2c1 [Compound I-263] |  |  | 105% | 8.8 nM |
